# Assay results published in ChEMBL document CHEMBL1201862, “PubChem BioAssay data set” (2004).
# Where a name gives a salt, the structure may show the parent alone.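 1) Cells in 96-well plates. 2) Compound, 48 h, 5 concentrations. 3) Linear interpolation between surrounding doses. 4) Unreached endpoint = highest concentration. GI50 marks 50% less growth.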 Activity calls are given as the source filed them. Cut-off read from the data, not from the text of the source: active = GI50 up to about 1.1 µM and inactive = higher.
# Assays:
# Assay in all cases: NCI anticancer screen, dose series, 48 h
# Hs-578T = system: Hs-578T
# DLD-1 = system: DLD-1
# DMS-273 = system: DMS-273
# HOP-18 = system: HOP-18
# LXFL 529 = system: LXFL 529
# M19-MEL = system: M19-MEL
# SNB-78 = system: SNB-78
# XF498 = system: XF498
# RXF 631 = system: RXF 631
smiles,measurement,setting,value
COC(=O)/C=C\C(C#N)(C#N)/N=C/c1ccccc1,GI50,Hs-578T,12.2 µM (inactive)
[N-]=[N+]=Nc1ccc2c(c1)Sc1ccccc1N2CCCCN1CCN(C(=O)CCNC(=O)Cc2ccc(C(=O)c3ccccc3)cc2)CC1,GI50,Hs-578T,17.7 µM (inactive)
Cc1oc2c(cc(O)c3cc(O)ccc32)c2cccc1-2,GI50,Hs-578T,> 100 µM (inactive)
[N-]=[N+]=Nc1c(Cc2ccccc2)c(Cl)nc2ccccc12,GI50,Hs-578T,21.3 µM (inactive)
CCOC(=O)c1nnsc1N/N=C\c1ccc([N+](=O)[O-])cc1,GI50,Hs-578T,> 100 µM (inactive)
COc1ccc(C(OCC2OC(n3ccc(NC(=O)c4ccccc4)nc3=O)C(O)C2O)(c2ccccc2)c2ccccc2)cc1 (stereo not drawn),GI50,Hs-578T,2.12 µM (inactive)
CCCCN(CC)CC(C(C)=O)c1c(O)c2ccccc2oc1=O (stereo not drawn),GI50,DLD-1,> 100 µM (inactive)
same,GI50,DMS-273,> 100 µM (inactive)
same,GI50,HOP-18,> 100 µM (inactive)
same,GI50,LXFL 529,> 100 µM (inactive)
same,GI50,M19-MEL,> 100 µM (inactive)
same,GI50,SNB-78,> 100 µM (inactive)
same,GI50,XF498,> 100 µM (inactive)
CC1(C)Oc2ccc3ccc(=O)oc3c2C(O)C1O (stereo not drawn),GI50,Hs-578T,52.1 µM (inactive)
O=C(Nc1ccc(C(F)(F)F)cc1[N+](=O)[O-])c1cccnc1,GI50,Hs-578T,6.53 µM (inactive)
CC(=O)c1c2c(cc3c1CC1(Cc4cc5c(cc4C1)CCCC5)C3)CCCC2,GI50,Hs-578T,> 100 µM (inactive)
O=C(/C=C/c1cccc(Oc2ccccc2)c1)NCc1ccc(C(=O)NCc2ccccc2)cc1,GI50,Hs-578T,> 100 µM (inactive)
O=C1CCSc2c(cnc3ccccc23)N1,GI50,Hs-578T,31.3 µM (inactive)
N#CC1(c2ccccc2)CCN(C2(c3ccccc3)CCCCC2)CC1,GI50,Hs-578T,44 µM (inactive)
Cc1nnc2sc(Cl)nn12,GI50,Hs-578T,39.5 µM (inactive)
Cc1cc(O)nc2cc3oc4ccccc4c3cc12,GI50,Hs-578T,0.562 µM (active)
COc1cc2c(cc1OC)C(=O)/C(=C/c1ccc(Cl)cc1)CC2,GI50,Hs-578T,> 10 µM (inactive)
Cc1ccccc1/N=N/c1c(-c2ccccc2)nn(C(=O)CC(=O)Nc2cccc(Cl)c2)c1-c1ccccc1,GI50,DLD-1,20.4 µM (inactive)
same,GI50,DMS-273,20 µM (inactive)
same,GI50,HOP-18,25.7 µM (inactive)
same,GI50,LXFL 529,21.6 µM (inactive)
same,GI50,M19-MEL,> 10 µM (inactive)
same,GI50,SNB-78,23.5 µM (inactive)
same,GI50,XF498,28.2 µM (inactive)
O=C1NC(=S)N/C1=C\c1ccc(Br)s1,GI50,Hs-578T,34 µM (inactive)
O=c1[nH]nc(Cc2ccc(Cl)cc2)n1Nc1ccccc1,GI50,Hs-578T,47.9 µM (inactive)
CCOc1cc(NC(C)=O)ccc1C(=O)NNC(=O)c1ccccc1OC(C)=O,GI50,Hs-578T,> 52 µM (inactive)
Nc1cccc(C2CCCc3c2[nH]c2ccccc32)c1 (stereo not drawn),GI50,Hs-578T,16 µM (inactive)
COC(=O)C1CN=CN1CCc1ccccc1 (stereo not drawn),GI50,Hs-578T,> 100 µM (inactive)
Cc1ccc(S(=O)(=O)n2c(-c3ccccc3)c(-c3ccccc3)c3ccccc32)cc1,GI50,DLD-1,> 100 µM (inactive)
same,GI50,DMS-273,> 100 µM (inactive)
same,GI50,HOP-18,> 100 µM (inactive)
same,GI50,LXFL 529,> 100 µM (inactive)
same,GI50,M19-MEL,> 100 µM (inactive)
same,GI50,XF498,> 100 µM (inactive)
C1=Cc2nc1c(-c1ccncc1)c1ccc([n-]1)c(-c1ccncc1)c1nc(c(-c3ccncc3)c3ccc([n-]3)c2-c2ccncc2)C=C1.[Zn+2],GI50,DLD-1,> 100 µM (inactive)
same,GI50,LXFL 529,> 100 µM (inactive)
same,GI50,M19-MEL,> 100 µM (inactive)
same,GI50,RXF 631,> 100 µM (inactive)
same,GI50,SNB-78,> 100 µM (inactive)
same,GI50,XF498,> 100 µM (inactive)
O=C(COc1ccccc1Cl)N1N=C(c2ccc(Cl)cc2)CC1(O)c1ccccc1 (stereo not drawn),GI50,DLD-1,> 100 µM (inactive)
same,GI50,DMS-273,> 100 µM (inactive)
same,GI50,LXFL 529,> 100 µM (inactive)
same,GI50,M19-MEL,> 100 µM (inactive)
same,GI50,RXF 631,> 100 µM (inactive)
same,GI50,SNB-78,> 100 µM (inactive)
same,GI50,XF498,> 100 µM (inactive)
CC(Cc1cccc2c1Nc1ccccc1S2)N(C)CCO (stereo not drawn),GI50,Hs-578T,> 100 µM (inactive)
O=C(Nc1ccc(Cl)cc1)c1cccc([N+](=O)[O-])c1O,GI50,DLD-1,3.18 µM (inactive)
same,GI50,DMS-273,3.13 µM (inactive)
same,GI50,HOP-18,0.53 µM (active)
same,GI50,LXFL 529,3.1 µM (inactive)
same,GI50,M19-MEL,2.8 µM (inactive)
same,GI50,SNB-78,4.27 µM (inactive)
same,GI50,XF498,2.64 µM (inactive)
CN[C@@H](C)[C@@H](O)c1ccccc1 [PSEUDOEPHEDRINE HYDROCHLORIDE],GI50,Hs-578T,> 100 µM (inactive)
COc1ccc(-c2cc(-c3ccco3)c(C#N)c(=O)n2C2OC(OC(=O)c3ccccc3)C(OC(=O)c3ccccc3)C2OC(=O)c2ccccc2)cc1 (stereo not drawn),GI50,DLD-1,> 100 µM (inactive)
same,GI50,DMS-273,63.4 µM (inactive)
same,GI50,HOP-18,> 100 µM (inactive)
same,GI50,LXFL 529,> 100 µM (inactive)
same,GI50,M19-MEL,> 100 µM (inactive)
same,GI50,RXF 631,> 100 µM (inactive)
same,GI50,SNB-78,> 100 µM (inactive)
O=C1C(Cl)=C(N2CCN(c3ccccn3)CC2)C(=O)c2c(O)ccc(O)c21,GI50,Hs-578T,1.84 µM (inactive)
Cc1ccc(S(=O)(=O)OCC23CCC(C4CC42)C2CC23)cc1 (stereo not drawn),GI50,DLD-1,> 100 µM (inactive)
same,GI50,DMS-273,68.2 µM (inactive)
same,GI50,HOP-18,> 100 µM (inactive)
same,GI50,LXFL 529,65 µM (inactive)
same,GI50,M19-MEL,60.7 µM (inactive)
same,GI50,RXF 631,> 100 µM (inactive)
O=c1ncccn1[C@@H]1O[C@H](CO)[C@@H](O)[C@@H]1F,GI50,DMS-273,> 100 µM (inactive)
same,GI50,HOP-18,> 100 µM (inactive)
same,GI50,LXFL 529,> 100 µM (inactive)
same,GI50,M19-MEL,> 100 µM (inactive)
same,GI50,RXF 631,> 51.6 µM (inactive)
same,GI50,SNB-78,> 100 µM (inactive)
same,GI50,XF498,> 100 µM (inactive)
